Measurements taken from US20250255994A1, “DIMERIC IMMUNOCONJUGATES FOR USE IN TREATING CANCERS AND METHODS OF USE” (Medicovestor, Inc., priority 2023, published 2025).
Entries after “also recorded” stand apart in the source; their conditions may differ. Blank lines part the entries; values can stand above or below the molecule they belong to. Starred links: 1 amine or outer side, 2 acyl side, 3 side chain; linkers in the order of their positions; H or OH if unused. Non-standard residues stand in square brackets, D forms with d. Residues, ends and D or L forms follow the SMILES beside them. *: point of attachment. Exatecan = CC[C@@]1(O)C(=O)OCc2c1cc1n(c2=O)Cc2c-1nc1cc(F)c(C)c3c1c2[C@@H](N*)CC3; Hexanoyl(6-maleimido) = O=C1C=CC(=O)N1CCCCCC(=O)*; NHCH2OCH2CO = O=C(COCN[*:1])[*:2]

Tests used:
SK-OV-3 cells [1] = test: SK-OV-3 cytotoxicity assay (luminescence), Example 9; assay type: cell-based, human; conditions: SK-OV-3 cells at 2000 cells/well; five additional days
Experimental: The SK-OV-3 cells are then treated with various concentrations of (1) the SP17-AB2 antibody, (2) the SP17-AB2-DXD immunoconjugate, (3) the SP17-AB2-Ozogamicin immunoconjugate, (4) both the SP17-AB2-DXD immunoconjugate and the SP17-AB2-Ozogamicin, (5) the dSP17-AB2-DXD/Ozogamicin immunoconjugate, (6) hdSP17-AB2, (7) hIgG4, or (8) deruxtecan. […] IC50s and maximum cytotoxicity are then determined.
The IC50 of (4) the combination of SP17-AB2-DXD and SP17-AB2-Ozogamicin is determined based on the concentration of SP17-AB2-DXD and SP17-AB2-Ozogamicin individually and not based on the combined concentration. For example, when SK-OV-3 cells are incubated at a concentration of SP17-AB2-DXD and SP17-AB2-Ozogamicin of 128 nanomolar each, then the IC50 is calculated based on the 128 nanomolar concentration (and not the 256 nanomolar combined concentration) so that 128 nanomolar of (4) SP17-AB2-DXD and SP17-AB2-Ozogamicin contains about the same concentration of deruxtecan, ozogamicin, and antigen-binding sites as 128 nanomolar of (5) the dSP17-AB2-DXD/Ozogamicin immunotherapeutic.

SK-OV-3 cells [2] = test: SK-OV-3 cytotoxicity assay (luminescence), Example 4; conditions: 5 or 6 additional days; for Max Cytotoxicity: FIG. 9 axis: percent cytotoxicity
Experimental: SK-OV-3 cells were seeded at 1000, 2000, or 3000 cells per well and incubated overnight in advance of a cytotoxicity assay. […] The SK-OV-3 cells were treated with various concentrations of the SP17-AB2 antibody, the SP17-AB2-DXD immunoconjugate, a control human IgG4 antibody (hIgG4), or deruxtecan alone (DXD). The cells were incubated for 5 or 6 additional days, and cytotoxicity was then measured using a luminescence assay and En Vision™ plate reader (PerkinElmer, Massachusetts, United States).

ID8 cells = test: ID8 cytotoxicity assay, Example 4; assay type: cell-based, mouse; conditions: 3 additional days, FIG. 10 axis: percent cytotoxicity
Experimental: […] The cells were then treated with various concentrations of either the SP17-AB2 antibody, the SP17-AB2-DXD immunoconjugate, hIgG4, or deruxtecan alone. The cells were incubated for 3 additional days, and then cytotoxicity was measured.

[3] = molecular target: T1, recombinant 6His-Sp17 protein (human, UniProt Q15506 1-151); test: surface plasmon resonance (Biacore T200), 6His-Sp17 at 6.25-300 nanomolar as analyte
T1 construct: Analyte of the surface plasmon resonance experiment; not shown: 6His tag
T1 sequence (looked up): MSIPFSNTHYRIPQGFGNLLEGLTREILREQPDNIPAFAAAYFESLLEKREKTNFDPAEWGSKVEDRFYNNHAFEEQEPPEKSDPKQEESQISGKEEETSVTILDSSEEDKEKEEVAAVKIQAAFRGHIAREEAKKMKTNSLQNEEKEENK
From the text: (§1) The lines correspond, from highest to lowest, to fitted cycles for 300 nanomolar, 100 nanomolar, 50 nanomolar, 25 nanomolar, 12.5 nanomolar, and 6.25 nanomolar concentrations of 6His-Sp17.
(§2) The nucleotide sequences encoding the VH and VL regions of Example 1 were cloned into a […] heavy chain gene and a mouse kappa light chain gene, respectively, and expressed in CHO-S cells to produce a mouse-human chimeric antibody, which was named chAB2. Successful generation of the antibody was confirmed by SDS-PAGE and western blotting using anti-mouse heavy and light chain antibodies and recombinant Sp17 protein (FIGS. 2 & 3). The chAB2 antibody was reactive to mouse surface Sp17 protein expressed on the mouse ovarian cancer cell line ID8 (FIG. 4).

[4] = molecular target: T1, recombinant 6His-Sp17 protein; test: surface plasmon resonance, 6His-Sp17 at 6.25-300 nanomolar as analyte
From the text: as §1, §2

[5] = molecular target: T2, recombinant 6His-Sp17 protein (Homo sapiens, UniProt Q15506); test: Surface plasmon resonance (Biacore T200) of chAB2 binding to Sp17; conditions: SPR
T2 construct: 6His
T2 sequence (Q15506 1-151): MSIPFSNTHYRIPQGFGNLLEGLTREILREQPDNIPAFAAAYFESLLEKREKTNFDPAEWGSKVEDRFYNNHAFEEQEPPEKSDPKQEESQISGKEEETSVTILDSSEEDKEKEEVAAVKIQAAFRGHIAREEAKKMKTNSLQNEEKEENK
From the text: as §1
as §2, with “3).” for “3). The chAB2 antibody was reactive to mouse surface Sp17 protein expressed on the mouse ovarian cancer cell line ID8 (FIG. 4).”

[6] = molecular target: T3, mouse surface Sp17 protein expressed on the mouse ovarian cancer cell line ID8 (Mus musculus, UniProt Q62252); test: Flow cytometry of ID8 cells labeled with chAB2 and anti-mouse FITC antibody; assay type: cell-based; conditions: relative to anti-mouse FITC antibody alone
T3 construct: mouse surface Sp17 protein expressed on the mouse ovarian cancer cell line ID8; endogenous in cells; host or cells: ID8 mouse ovarian cancer cells
T3 sequence (Q62252 1-149): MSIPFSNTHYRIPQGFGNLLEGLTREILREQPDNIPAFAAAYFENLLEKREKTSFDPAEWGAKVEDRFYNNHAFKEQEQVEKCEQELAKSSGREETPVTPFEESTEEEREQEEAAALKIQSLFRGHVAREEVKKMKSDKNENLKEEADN
Experimental: FIG. 4 consists of three panels. The left panel is a graph that depicts flow cytometry results for ID8 cells incubated with an anti-mouse fluorescein isothiocyanate (FITC) antibody, but without a primary antibody. The middle panel is a graph that depicts flow cytometry results for ID8 cells labeled with the anti-Sp17 antibody chAB2 and the anti-mouse FITC antibody.
as §2, with “3).” for “3). The chAB2 antibody was reactive to mouse surface Sp17 protein expressed on the mouse ovarian cancer cell line ID8 (FIG. 4).”

33 normal human tissues = test: Immunohistochemistry on a normal tissue microarray (specificity); assay type: binding
Experimental: The specificity of the chAB2 antibody for Sp17 was determined with immunohistochemistry on a normal tissue microarray, which consisted of 33 normal tissues obtained from 2-3 human donors per tissue. The normal tissues included brain, eye, adrenal gland, hypophyseal, thyroid, parathyroid, tonsil, thymus, spleen, heart, lung, larynx, esophagus, stomach, small intestine, colon, liver, pancreas, salivary gland, kidney, bone, skeletal, skin, peripheral nerve, mesothelial, breast, ovary, endometrium, cervix, testis, and prostate.

[7] = SK-OV-3 cells at 1000 cells/well
[8] = SK-OV-3 cells at 2000 cells/well
[9] = SK-OV-3 cells at 3000 cells/well

Molecule: CC[C@@]1(O)C(=O)OCc2c1cc1n(c2=O)Cc2c-1nc1cc(F)c(C)c3c1c2[C@@H](NC(=O)COCNC(=O)CNC(=O)[C@H](Cc1ccccc1)NC(=O)CNC(=O)CNC(=O)CCCCCN1C(=O)C=CC1=O)CC3 [deruxtecan] ({Hexanoyl(6-maleimido)}-GGFG[NHCH2OCH2CO]-Exatecan)
Max Cytotoxicity (SK-OV-3 cells [1]): 97 | IC50 (SK-OV-3 cells [2]; [7]): 0.75 nM | Max Cytotoxicity (SK-OV-3 cells [2]; [7]): 98 | IC50 (SK-OV-3 cells [2]; [8]): 1.1 nM | Max Cytotoxicity (SK-OV-3 cells [2]; [8]): 97 | IC50 (SK-OV-3 cells [2]; [9]): 1.2 nM | Max Cytotoxicity (SK-OV-3 cells [2]; [9]): 97 | Max Cytotoxicity (ID8 cells; ID8 cells at 250 cells/well): 94 | Max Cytotoxicity (ID8 cells; ID8 cells at 500 cells/well): 93

Kd [3]: 2.07 nM | koff [4]: 0.00013 s⁻¹ | kon [4]: 62600 M⁻¹ s⁻¹
B1: mouse-human chimeric anti-Sp17 IgG2a/kappa monoclonal antibody chAB2 (antibody, V domains shown)
VH: QVQLQQSGAEVKKPGSSVKVSCKASGGTFSSYAISWVRQAPGQGLEWMGRIIPILGIANYAQKFQGRVTITADKSTSTAYMELSSLRSEDTAVYYCARPSEEVVAAYGAFDIWGQGTTVTVSS
VL: EIVLTQSPLSLPVRPGEPASISCRASQSLLRSDGFNYLDWYLQKPGQSPQLLVYLGSNRASGVPDRFSGSGSGTDFTLKISRVEAEDVGVYYCMQAVQTPYIFGQGTKLEIK
notes: also called chimeric antibody; anti-Sp17 antibody chAB2

association rate constant (ka) ([5]; 6.25-300 nanomolar 6His-Sp17): 62,600 per mole per second | Kd ([5]; read-out: dissociation constant (KD)): ~2 nM | binding to testis (immunohistochemistry) (33 normal human tissues; testis tissue): bound to testis
B2: chAB2: mouse-human chimeric anti-Sp17 antibody: human VH/VL in mouse IgG2a heavy chain and mouse kappa light chain, expressed in CHO-S cells (antibody, V domains shown)
VH: QVQLQQSGAEVKKPGSSVKVSCKASGGTFSSYAISWVRQAPGQGLEWMGRIIPILGIANYAQKFQGRVTITADKSTSTAYMELSSLRSEDTAVYYCARPSEEVVAAYGAFDIWGQGTTVTVSS
VL: EIVLTQSPLSLPVRPGEPASISCRASQSLLRSDGFNYLDWYLQKPGQSPQLLVYLGSNRASGVPDRFSGSGSGTDFTLKISRVEAEDVGVYYCMQAVQTPYIFGQGTKLEIK
reactivity to surface Sp17 on ID8 cells (mean fluorescent intensity) [6]: reactive to mouse surface Sp17 protein; also recorded: increased mean fluorescent intensity | binding to / cross-reactivity with normal tissues (immunohistochemistry) (33 normal human tissues; 33 normal tissues, 2-3 human donors per tissue): lack detectable cross-reactivity; also recorded: did not bind to normal tissues
